Several values for one entry are separate records, joined by “and”; a condition that tells them apart may be missing. Equal values may be shown once. Entries after “also recorded” stand apart in the source; their conditions may differ.
Assay: Pharmacokinetics of DC291407 and metabolites in rats (LC-MS/MS)
Type: in vivo, Sprague-Dawley (SD) rats
Procedure: The concentration of metabolite M1 (4071001), metabolite M2 (407002) or metabolite M3 (407003) in plasma was determined by LC-MS/MS method after DC291407 was administrated to the rats through gavage and intravenous injection.
The LC/MS/MS used is triple quadruple LC/MS 6460 from Agilent.
Six healthy male Sprague-Dawley (SD) rats with the weight of 180-220 g were randomly divided into 2 groups. The rats in each group were administrated with the tested compound by gavage or intravenous injection, respectively.
The compound was dissolved in 6.7% DMSO/6.7% Tween/86.6% normal saline.
The rats fasted for 12 h and can drink water ad libitum. 2 h after dosing, the rats were provided with food all together. The time point for collecting blood samples and the sample processing are listed as follows.
Intragastric administration: 0.25, 0.5, 1.0, 2.0, 3.0, 4.0, 6.0, 8.0 and 24 h after administration;
Intravenous administration: 5 min, 0.25, 0.5, 1.0, 2.0, 4.0, 6.0, 8.0 and 24 h after administration. At above time point, 0.3 ml venous blood was taken from retrobulbar venous plexus of the rat and loaded into heparinization tube. After centrifuged at 11000 rpm for 5 min, the plasma was separated and frozen at −20° C. in a refrigerator.

[1] = gavage 20 mg/kg DC291407, average of 3 animals
[2] = gavage 20 mg/kg DC291407, individual animals, 20 mg/kg
[3] = gavage 20 mg/kg DC291407, time 0 h, individual animals, BLQ = below lower quantification
[4] = gavage 20 mg/kg DC291407, time 0.25 h, individual animals, 20 mg/kg
[5] = gavage 20 mg/kg DC291407, time 0.5 h, individual animals, 20 mg/kg
[6] = intravenous injection 10 mg/kg DC291407, average of 3 animals

For COC(=O)c1cc2nc(N3CCCC(N)C3)n(Cc3ccccc3C#N)c(=O)c2s1 (centres unmarked) [DC291407], the “concentration of M2 in plasma samples collected within one hour after administration” value (gavage 20 mg/kg DC291407) was “below 20 ng/ml”, the “metabolite M3 in plasma” value (gavage 20 mg/kg DC291407) was “can not be detected” and the “prototype compound in plasma” value (gavage 20 mg/kg DC291407) was “can not be detected”. The “main component in plasma” value (gavage 20 mg/kg DC291407, 20 mg/kg) was “mainly contained hydrolysis-metabolite M1; also recorded: mainly contained hydrolysis-metabolite Ml”, the “AUC0-t of metabolite M1” value [1] was 9860 ng·h/mL and the “AUC0-∞ of metabolite M1” value [1] was 9968 ng·h/mL. For the same compound, the “Cmax of metabolite M1” value [1] was 6039 ng/mL, the “MRT of metabolite M1” value [1] was 2.58 h and the “Tmax of metabolite M1” value [1] was 0.33 h. The “t1/2 of metabolite M1” value [1] was 5.63 h, the “F, absolute bioavailability” value (gavage 20 mg/kg DC291407, dose-normalized, based on AUC of metabolite M1) was 22.1% and the “AUC0-t of metabolite M1” value [2] was 8191 ng·h/mL and 5758 ng·h/mL and 15633 ng·h/mL. For the same compound, the “AUC0-∞ of metabolite M1” value [2] was 8292 ng·h/mL and 5907 ng·h/mL and 15706 ng·h/mL, the “Cmax of metabolite M1” value [2] was 4435 ng/mL and 3427 ng/mL and 10255 ng/mL and the “MRT of metabolite M1” value [2] was 2.86 h and 3.15 h and 1.74 h. The “Tmax of metabolite M1” value [2] was 0.50 h and 0.25 h, the “t1/2 of metabolite M1” value [2] was 5.37 h and 7.97 h and 3.55 h and the “Plasma concentration of metabolite M1” value [3] was “BLQ”. For the same compound, the “Plasma concentration of metabolite M2” value [3] was “BLQ”, the “Plasma concentration of metabolite M1” value (gavage 20 mg/kg DC291407, time 0.25 h, average of 3 animals) was 5712 ng/mL and the “Plasma concentration of metabolite M1” value [4] was 3454 ng/mL and 3427 ng/mL and 10255 ng/mL. The “Plasma concentration of metabolite M2” value [4] was 3.87 ng/mL and 3.24 ng/mL and 16.3 ng/mL, the “Plasma concentration of metabolite M1” value (gavage 20 mg/kg DC291407, time 0.5 h, average of 3 animals) was 5975 ng/mL and the “Plasma concentration of metabolite M1” value [5] was 4435 ng/mL and 3404 ng/mL and 10087 ng/mL. For the same compound, the “Plasma concentration of metabolite M2” value [5] was 4.79 ng/mL and 3.94 ng/mL and 16.9 ng/mL, the “Plasma concentration of metabolite M1” value (gavage 20 mg/kg DC291407, time 1.0 h, average of 3 animals) was 3962 ng/mL and the “Plasma concentration of metabolite M1” value (gavage 20 mg/kg DC291407, time 1.0 h, individual animals, 20 mg/kg) was 3326 ng/mL and 1771 ng/mL and 6789 ng/mL. The “Plasma concentration of metabolite M2” value (gavage 20 mg/kg DC291407, time 1.0 h, individual animals, BLQ = below lower quantification, 20 mg/kg) was 3.88 ng/mL and BLQ and 10.7 ng/mL, the “Plasma concentration of metabolite M1” value (gavage 20 mg/kg DC291407, time 2.0 h, average of 3 animals) was 1117 ng/mL and the “Plasma concentration of metabolite M1” value (gavage 20 mg/kg DC291407, time 2.0 h, individual animals, 20 mg/kg) was 690 ng/mL and 1091 ng/mL and 1569 ng/mL. The “Plasma concentration of metabolite M2” value (gavage 20 mg/kg DC291407, time 2.0 h, individual animals, BLQ = below lower quantification) was “BLQ”, the “Plasma concentration of metabolite M1” value (gavage 20 mg/kg DC291407, time 3.0 h, average of 3 animals) was 549 ng/mL and the “Plasma concentration of metabolite M1” value (gavage 20 mg/kg DC291407, time 3.0 h, individual animals, 20 mg/kg) was 476 ng/mL and 299 ng/mL and 872 ng/mL. For the same compound, the “Plasma concentration of metabolite M2” value (gavage 20 mg/kg DC291407, time 3.0 h, individual animals, BLQ = below lower quantification) was “BLQ”, the “Plasma concentration of metabolite M1” value (gavage 20 mg/kg DC291407, time 4.0 h, average of 3 animals) was 390 ng/mL and the “Plasma concentration of metabolite M1” value (gavage 20 mg/kg DC291407, time 4.0 h, individual animals, 20 mg/kg) was 500 ng/mL and 105 ng/mL and 565 ng/mL. The “Plasma concentration of metabolite M2” value (gavage 20 mg/kg DC291407, time 4.0 h, individual animals, BLQ = below lower quantification) was “BLQ”, the “Plasma concentration of metabolite M1” value (gavage 20 mg/kg DC291407, time 6.0 h, average of 3 animals) was 123 ng/mL and the “Plasma concentration of metabolite M1” value (gavage 20 mg/kg DC291407, time 6.0 h, individual animals, 20 mg/kg) was 138 ng/mL and 57.3 ng/mL and 173 ng/mL. The “Plasma concentration of metabolite M2” value (gavage 20 mg/kg DC291407, time 6.0 h, individual animals, BLQ = below lower quantification) was “BLQ”, the “Plasma concentration of metabolite M1” value (gavage 20 mg/kg DC291407, time 8.0 h, average of 3 animals) was 68.5 ng/mL and the “Plasma concentration of metabolite M1” value (gavage 20 mg/kg DC291407, time 8.0 h, individual animals, 20 mg/kg) was 97.1 ng/mL and 58.9 ng/mL and 49.5 ng/mL. The “Plasma concentration of metabolite M2” value (gavage 20 mg/kg DC291407, time 8.0 h, individual animals, BLQ = below lower quantification) was “BLQ”, the “Plasma concentration of metabolite M1” value (gavage 20 mg/kg DC291407, time 24 h, average of 3 animals) was 13.4 ng/mL and the “Plasma concentration of metabolite M1” value (gavage 20 mg/kg DC291407, time 24 h, individual animals, 20 mg/kg) was 13.0 ng/mL (2×) and 14.3 ng/mL. For the same compound, the “Plasma concentration of metabolite M2” value (gavage 20 mg/kg DC291407, time 24 h, individual animals, BLQ = below lower quantification) was “BLQ”, the “main component in plasma” value (intravenous 10 mg/kg DC291407) was “mainly contained hydrolysis-metabolite M1” and the “metabolite M2 in plasma” value (intravenous 10 mg/kg DC291407) was “relatively low concentration”. The “prototype compound in plasma” value (intravenous 10 mg/kg DC291407) was “relatively low concentration”, the “metabolite M3 in plasma” value (intravenous 10 mg/kg DC291407, 10 mg/kg) was “can not be detected; also recorded: no metabolite M3 can be detected” and the “AUC0-t of metabolite M1” value [6] was 22274 ng·h/mL. For the same compound, the “AUC0-t of prototype drug” value [6] was 36.0 ng·h/mL, the “AUC0-∞ of metabolite M1” value [6] was 22517 ng·h/mL and the “AUC0-∞ of prototype drug” value [6] was 39.9 ng·h/mL. For the same compound, the “CL of prototype drug” value [6] was 260 L/h/kg, the “Cmax of metabolite M1” value [6] was 45028 ng/mL and the “MRT of metabolite M1” value [6] was 1.13 h. The “MRT of prototype drug” value [6] was 0.78 h and the “Tmax of metabolite M1” value [6] was 0.083 h.

Source: US9045491B2, “Thienyl [3,2-D] pyrimidin-4-one compounds, preparation method, pharmaceutical compositions and use thereof” (SHANGHAI INSTITUTE OF MATERIA MEDICA, CHINESE ACADEMY OF …, priority 2011, dated 2015)
